Source: US6818651B2, “(Dihydro) isoquinoline derivatives as phosphodiesterase inhibitors” (Altana Pharma AG, priority 2000, dated 2004)

molecular target: T1, recombinant PDE7A1 (Homo sapiens, UniProt Q13946); assay: Inhibition of PDE7 activity, modified SPA (scintillation proximity assay) test; type: biochemical; conditions: recombinant PDE7A1 (1000×g supernatant of SF21 cells), 0.5 μM cAMP, [3H]cAMP SPA, 37° C.; read-out: −log IC50 (inhibition of PDE7 activity) (converted)
T1 construct: made in house; host or cells: SF21 insect cells (baculovirus; virus made in SF9)
Source text: Cloning and expression of PDE7: The cDNAs for PDE7A1 and 7A2 (GenBank Acc-: L12052 and u67932, respectively) were isolated, using RT-PCR, from total cellular RNA derived from the T cell line CCRF-CEM and cloned into the cloning vector pCR2.1 (Invitrogen, Groningen, NL) under standard conditions (the manufacturer's instructions). For expression in insect cells, the cDNAs were subcloned into the baculo expression vector pCRBac (Invitrogen, Groningen, NL).
The recombinant baculoviruses were prepared, by means of homologous recombination in SF9 insect cells, by cotransfecting the plasmids containing baculovirus DNA (wild type, wt) Bac-N-Blue (Invitrogen, Groningen, NL) for PDE7A1 and containing Baculo-Gold DNA (Pharmingen, Hamburg) using a standard protocol (Pharmingen, Hamburg). Wt virus-free recombinant virus supernatants were selected using plaque assay methods. After that, high-titre virus supernatants were prepared by amplifying 3 times. For determining the enzyme activities, the PDEs were expressed in SF21 cells by infecting 2×10^6 cells/ml with an MOI (multiplicity of infection) ≈5 in serum-free SF900 medium (Life Technologies, Paisley, UK) in spinner flasks. The cells were cultured at 28° C., and at a rotationall speed of 75 rpm, for 48 hours, after which they were pelleted for 5-10 min at 1000 g and 4° C. and then resuspended in 1×PBS at a concentration of 1-3×10^6 cells/ml. The protein content was determined by the Bradford method (BioRad, Munich) using BSA as the standard.
The SF21 insect cells are resuspended, at a concentration of approx. 10^7 cells/ml, in ice-cold (4° C.) homogenization buffer (20 mM Tris, pH 8.2, containing the following additions: 140 mM NaCl, 3.8 mM KCl, 1 mM EGTA, 1 mM MgCl2, 1 mM β-mercaptoethanol, 2 mM benzamidine, 0.4 mM Pefablock, 10 μM leupeptin, 10 μM pepstatin A, 5 μM trypsin inhibitor) and disrupted by ultrasonication. The homogenate is then centrifuged for 10 min at 1000×g and the supernatant is stored at −80° C. until subsequent use (see below).
The PDE7 activity was inhibited by said compounds in a modified SPA (scintillation proximity assay) test, supplied by Amersham Pharmacia Biotech (see procedural instructions “Phosphodiesterase [3H]cAMP SPA enzyme assay, code TRKQ 7090”), carried out in 96-well microtitre plates (MTPs). The test volume is 100 μl and contains 20 mM Tris buffer (pH 7.4), 0.1 mg of BSA (bovine serum albumin)/ml, 5 mM Mg^2+, 0.5 μM cAMP (including about 50,000 cpm of [3H]cAMP), 2 μl of the respective substance dilution in DMSO and sufficient recombinant PDE7A1 (1000×g supernatant, see above) to ensure that 15-20% of cAMP is converted under said experimental conditions. After a preincubation of 5 min at 37° C., the reaction is started by adding a substrate (cAMP) and the assays are incubated for a further 15 min; after that, they are stopped by adding SPA beads (50 μl). In accordance with the manufacturer's instructions, the SPA beads had previously been resuspended in water and diluted 1:3 (v/v) and added to IBMX (3 mM). After the beads have been sedimented (>30 min), the MTPs are analyzed in commercially available measuring appliances and the corresponding IC50 values of the compounds for the inhibition of PDE7 activity are determined from concentration-effect curves by means of non-linear regression.
The inhibitory values [inhibitory concentration as −logIC50 (mol/l)] which were determined for the compounds according to the invention are shown in the following table 1, in which the numbers of the compounds correspond to the numbers of the examples.

T1 sequence (Q13946 whole entry): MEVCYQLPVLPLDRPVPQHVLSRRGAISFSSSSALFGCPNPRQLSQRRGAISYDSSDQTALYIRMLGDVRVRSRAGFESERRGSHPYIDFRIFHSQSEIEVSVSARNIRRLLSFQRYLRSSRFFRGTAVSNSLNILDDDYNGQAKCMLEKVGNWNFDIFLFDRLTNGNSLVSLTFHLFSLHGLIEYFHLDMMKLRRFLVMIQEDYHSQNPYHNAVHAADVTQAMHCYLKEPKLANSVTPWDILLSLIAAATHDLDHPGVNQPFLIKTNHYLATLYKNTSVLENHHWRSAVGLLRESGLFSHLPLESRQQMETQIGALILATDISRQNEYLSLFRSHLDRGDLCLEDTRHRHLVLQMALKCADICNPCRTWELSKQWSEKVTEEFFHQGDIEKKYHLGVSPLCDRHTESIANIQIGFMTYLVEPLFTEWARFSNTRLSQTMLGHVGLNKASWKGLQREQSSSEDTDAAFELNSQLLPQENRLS

Row | IC50 | Compound
1 | 380 nM | O=S(=O)(Nc1ccc(C2=NCCc3ccc(Cl)cc32)cc1)c1cc(Br)c(Cl)s1 [Compound 6m, 1-[4-(4-Bromo-5chlorothiophene-2-sulfonamido)phenyl]-7-chloro-3,4-dihydroisoquinoline]
2 | 245 nM | O=S(=O)(C=Cc1ccccc1)Nc1ccc(C2=NCCc3ccc(Cl)cc32)cc1 [Compound 6h, 1-[4-(2-Phenylethenesulfonamido)phenyl]-7-chloro-3,4-dihydroisoquinoline]
3 | 123 nM | COc1cc(C2=NCCc3ccc(Cl)cc32)ccc1NS(=O)(=O)c1ccc(C)cc1 [Compound 1b, 1-[4-(4-Methylbenzenesulfonamido)-3-methoxyphenyl]-7-chloro-3,4-dihydroisoquinoline]
4 | 257 nM | O=S(=O)(Nc1ccc(C2=NCCc3ccc(F)cc32)cc1)c1cccc(C(F)(F)F)c1 [Compound 4c, 1-[4-(3-Trifluoromethylbenzenesulfonamido)phenyl]-7-fluoro-3,4-dihydroisoquinoline]

More lines, now with the values behind:

Row | Compound | IC50
5 | COc1cc(C2=NCCc3ccccc32)ccc1NS(=O)(=O)c1ccc(-c2ccon2)s1 [Compound 2a, 1-[4-(5-(Isoxazol-3-yl)-thiophene-2-sulfonamido)-3-methoxyphenyl]-3,4-dihydroisoquinoline] | 295 nM
6 | COc1cc(C2=NCCc3ccc(Cl)cc32)ccc1NS(=O)(=O)c1ccc(OC(F)(F)F)cc1 [Compound 1a, 1-[4-(4-Trifluoromethoxybenzenesulfonamido)-3-methoxyphenyl]-7-chloro-3,4-dihydroisoquinoline] | 32.4 nM
7 | O=S(=O)(Nc1ccc(C2=NCCc3ccc(F)cc32)cc1)c1ccc2ccccc2c1 [Compound 4e, 1-[4-(Naphthalene-2-sulfonamido)phenyl]-7-fluoro-3,4-dihydroisoquinoline] | 389 nM
